Test results published in patent publication US20050255493A1, “Molecular targeting of the IGF-1 receptor” (priority 2002, published 2005).

Experiments:
IGF1R mRNA = experiment: Oligonucleotide scanning array hybridisation with labelled transcript; format: binding, human; conditions: for Hybridisation to IGF1R mRNA on scanning array: 37° C. (and 23° C.); for Rel hyb intensity: relative to the most strongly hybridising sequence on the array; for Hyb intensity: scanning array probed with labelled IGF1R mRNA
Method: Scanning arrays complementary to the region of the IGF1R mRNA from position 537-685 were prepared using the standard techniques described in Southern E. M. et al., Nucleic Acids Res., 1994, 22(8): 1368-1373; and Sohail, M. and Southern, E. M. “Using oligonucleotide scanning arrays to find effective antisense reagents”, Methods in Molecular Biology, vol. 170: DNA Arrays: Methods and Protocols, Ed J. B. Rampal, Humana Press Inc., Totowa, N.J.
The scanning arrays comprise sets of oligonucleotides of various lengths. A series of oligonucleotides, complementary to the target mRNA, is made by sequential coupling of nucleotides to a solid surface. The DNA synthesis reagents are applied to a confined area on the surface of the solid support using a mask. The mask is shifted along the surface after each round of coupling, resulting in a series of oligonucleotides each complementary to a region of the target sequence.
• 2. Remove 1 μL for quantitation (see below). • 3. Remove unincorporated label by Sephadex® G25 column chromatography (see Note 11). • 4. Save 1 μL of the purified transcript for quantitation (see below). • 5. Check the integrity of the transcript by denaturing polyacrylamide gel electrophoresis (10). • 6. Add 10 μL of the scintillation fluid to the samples saved in Steps 2 and 4. • 7. Mix by vortexing and count the samples in a scintillation counter for 1 min. • 8. Calculate the percent incorporation: [formula] • 9. Calculate the amount of RNA made: [formula] Hybridisation to Arrays Made on Polypropylene • 1. Place the array in the hybridisation tube, coiling it in a spiral. • 2. Dilute the radiolabelled transcript in an appropriate volume (10-20 mL depending upon the size of the array and the hybridisation tube) of hybridisation buffer. The mix should cover the array along the length of the tube. • 3. Place items 1 and 2 in the oven at desired temperature for 30 min. Also put approximately 100 mL of the hybridisation buffer in the oven: this is to be used to wash the array at the end of hybridisation. • 4. Pour the hybridisation mix into the tube containing the array and hybridise for 3-4 h. • 5. Remove the hybridisation mix. Briefly wash the array with the hybridisation buffer from Step 3, air dry, cover with cling film and expose to a storage phosphor screen for 16-20 h (see Note 12). • 6. Scan the screen on PhosphorImager or STORM and analyse the image using xvseq (see below). Hybridisation to Arrays Made on Glass • 1. Clean the non-array glass plate with acetone and ethanol to ensure it is grease-free and siliconise it by treatment with dimethyl dichlorosilane solution and place it in lidded box. Also place moist paper towel in the box. • 2. Dilute the radiolabelled transcript in an appropriate volume of the hybridisation buffer (for example, for an array of 250 mm×50 mm use 500-750 μL). • 3. Place items 1 and 2 in an incubator at desired temprature for 30 min. Also put approximately 100 mL of the hybridisation buffer in the oven: this is to be used to wash the array at the end of hybridisation. • 4. Using a micropipette, pipette the hybridisation mix in a line evenly along the length of the non-array glass plate, avoiding formation of air bubbles. • 5. Starting at one end, carefully place the scanning array (face down) on top of the hybridisation mix. The mix will spread out and form a thin film between the two plates. Incubate for 3-4 h. • 6. Separate the plates from each other and wash the array plate with hybridisation buffer to remove unbound mix. Drain the plate, air dry, cover with cling film and expose to a storage phosphor screen for 16-20 h. • 7. Scan the screen on PhosphorImager or STORM and analyse the image using xvseq (see below). Alternative Hybridisation Protocol for Glass or Polypropylene • 1. Assemble with clips the array plate (or polypropylene array pasted with PhotoMount™ on a glass plate) and the non-array plate, using rubber tubing as spacers on two sides. • 2. […]

IGF1R = IGF1R level by immunoblotting in transfected MDA-231 cells; format: cell-based, human; conditions: for IGF1R Protein Level (% control): MDA-231 cells, 48 hr, vs scrambled control
Method: (§1) The human and murine cell lines used in this study were cultured in RPMI 1640 plus 10% FCS at 37° C. in a humidified atmosphere of 5% CO2. The cultures were negative when tested for Mycoplasma infection. Cultures were passaged the day before transfection to achieve 30-50% confluence the following day. Initial transfections of ASOs used 1-2.5 μg/ml Cytofectin (Glen Research, Sterling, Va.), according to the manufacturer's instructions. Latterly Oligofectamine (Life Sciences) has been used for all ASO and RNAi transfections. The method was as described (see manufacturer's instructions and www.dharmacon.com) with minor modifications. For transfection of monolayers seeded in 6 well plates, 5 μl phosphorothioate oligonucleotide or RNA duplex at 100× final concentration were mixed with 2501 serum-free Optimem (Gibco-BRL). In a separate tube 2 μl Oligofectamine was mixed with 68 μl Optimem. After 10 min incubation at room temperature the contents of the two tubes were mixed and incubated for a further 25 min at room temperature. Monolayers were washed with 1-2 ml Optimem. To the cells were added 175 μl Optimem followed by the 325 μl complexes. Volumes were scaled up by factors of 2.22 or 6.05 for transfection in 60 mm or 100 mm dishes respectively. Cultures were incubated at 37° C. for 4 hr, and then 50 μl FCS and 3.5 ml RPMI plus 5% FCS were added to each well. After 48 hr incubation effects on IGF1R and IR expression were determined by immunoblotting. Some transfected cultures were serum-starved overnight, divided into two aliquots and treated with 10 nM Long R3-IGF-I (GroPep, Adelaide) or diluent for 30 min at 37° C. prior to lysis.
(§2) IGF1R expression was assessed by immunoblotting as previously described (Macaulay et al 2001). After washing in ice-cold PBS, cells were lysed in 50 mM Hepes pH 7.5, 100 mM NaCl, 10 mM EDTA, 1% Triton-X-100, 4 mM sodium pyrophosphate, 2 mM sodium orthovanadate, 10 mM sodium fluoride, 1 mM PMSF, 2 μg/ml each leupeptin and aprotinin. Lysates were centrifuged for 15 minutes at 14,000 g, the protein concentration of supernatants was measured using BCA assay reagent (Pierce), and equivalent amounts of protein were separated on 7.5% SDS-PAGE gels and transferred to nitrocellulose. Target protein levels were assessed using antibodies to the β-subunit of the IGF1R or IR (Santa Cruz), phospho-Ser 473 Akt or total Akt (Cell Signalling, New England Biolabs) or β-tubulin (Sigma). Activated IGF1R was detected by immunoprecipitation for phosphotyrosine (P-Tyr-100, Cell Signaling Technology). Primary antibodies were detected with HRP-conjugated secondary antibodies (Dako), and ECL Plus (Amersham Pharmacia).
(§3) The ASOs and RNAi duplexes were transfected into MDA-231 cells (human ER negative breast cancer) using Cytofectin or Oligofectamine, as described above. After 48 hr the cells were lysed, and IGF1R and IR levels were measured by immunoblotting. The intensity of the autoradiographic bands was quantified by densitometry, and IGF1R (or IR) levels were corrected for loading differences. The specific IGF1R or IR results are presented as % IGF1R (or IR) level of that in cells transfected with the same concentration of an appropriate control. This was a scrambled control oligonucleotide for ASOs, and an inverted RNA duplex for RNAi.

IR = IR level by immunoblotting in transfected MDA-231 cells; format: cell-based, human; conditions: for IR Protein Level (% control): 48 hr, vs scrambled control; for IR downregulation: TSS ASO at 300 nM; for Selectivity for IGF1R mRNA versus IR mRNA: compared with TSS ASO
Method: as §1, §2, §3

MDA-MB-231 cells = experiment: Clonogenic survival and post-irradiation survival (SF2) of transfected MDA-MB-231 cells; format: cell-based, human; conditions: MDA-MB-231, 100 nM
Method: FIG. 7 A) MDA-MB-231 cells transfected with 100 nM RNA duplexes were serum-starved overnight and treated with 50 nM IGF-I for 30 min. […] Results represent mean±sem of colony counts in triplicate dishes. Similar results were obtained in two further clonogenic assays. • C) Clonogenic survival of transfected MDA-MB-231 cells that were unirradiated or irradiated at 2Gy. The fraction surviving 2Gy irradiation (SF2) is shown as mean±sem of three independent assays.
The effect of transfection with 100 nM ASO4 or siRNA duplexes R4 and R5, equivalent to strongly and weakly hybridizing ASOs respectively, on colony forming efficiency and post-irradiation survival was also evaluated. […] This in turn illustrates the utility of hybridisation to the scanning ASO array in the selection of siRNA reagents, since relative hybridisation to the array is found to be predictive of activity in RNA interference and biological efficacy.

| Substance | Hybridisation to IGF1R mRNA on scanning array (IGF1R mRNA) | IGF1R Protein Level (% control) (IGF1R; 30 nM ASO) | IGF1R Protein Level (% control) (IGF1R; 300 nM ASO) | IGF1R downregulation compared between 21mer duplexes (IGF1R; MDA-231 cells, 0.5, 5 and 50 nm (FIG. 5)) | Rel hyb intensity (IGF1R mRNA) | Hyb intensity (IGF1R mRNA) | IR Protein Level (% control) (IR; 30 nM ASO) | IR Protein Level (% control) (IR; 300 nM ASO) | IR downregulation (IR) | Selectivity for IGF1R mRNA versus IR mRNA (IR) | Survival after 2Gy irradiation (SF2) (MDA-MB-231 cells; 2Gy) | Clonogenic survival (MDA-MB-231 cells; unirradiated) |
| --- | --- | --- | --- | --- | --- | --- | --- | --- | --- | --- | --- | --- |
| ASO2 (20mer): phosphorothioate antisense oligonucleotide TGGTCTTCTCACACATCGGC, SEQ ID NO:7 (DNA, all phosphorothioate, methylation of C not given here) | hybridised strongly | 84 ± 11 % control | 47 ± 5 % control |  |  |  |  |  |  |  |  |  |
| Mut2: R2 duplex with single base pair mutation GCCGAUGUGUGUGAAGACCTT / TTCGGCUACACACACUUCUGG, SEQ ID NO:28 (sense GCCGAUGUGUGUGAAGACCNN; chemistry not fully specified; one strand is listed 3' to 5') |  |  |  | partially, though not completely, blocked |  |  |  |  |  |  |  |  |
| ASO5: phosphorothioate antisense oligonucleotide GTGGTCCAGCAGCGGTAGTT, SEQ ID NO:15 (DNA, all phosphorothioate, methylation of C not given here) | hybridised strongly |  |  |  | >0.07 | >4150 |  |  |  |  |  |  |
| 15mer: 15mer sequence described by Wraight et al. which falls within the region 537-685, gtgcagcagcggtag (DNA GTGCAGCAGCGGTAG; further chemistry not given here) [reference compound] |  |  |  |  | 0.03 | 1695 |  |  |  |  |  |  |
| ASO4: phosphorothioate antisense oligonucleotide GCGGTAGTTGTACTCATTGT, SEQ ID NO:13 (DNA, all phosphorothioate, methylation of C not given here) | hybridised strongly | 73 ± 2 % control | 49 ± 2 % control |  | >0.59 | >33,162 | 97 % control | 92 % control | did not cause significant downregulation of IR | greater selectivity for IGF1R mRNA versus IR mRNA | entirely non-specific | entirely non-specific |
| ASO1 (20mer): phosphorothioate antisense oligonucleotide CGGCTTCTCCTCCATGGTCC, SEQ ID NO:2 (DNA, all phosphorothioate, methylation of C not given here) | hybridised strongly | 66 ± 23 % control | 38 ± 6 % control |  |  |  | 112 % control | 135 % control | did not cause significant downregulation of IR | greater selectivity for IGF1R mRNA versus IR mRNA |  |  |
| ASO3: phosphorothioate antisense oligonucleotide ATTGTTGATGGTGGTCTTCT, SEQ ID NO:11 (DNA, all phosphorothioate, methylation of C not given here) | hybridises only at 23 °C | 105 ± 18 % control | 104 ± 22 % control |  | >0.13 | >7048 |  |  |  |  |  |  |
